# Values quoted from earlier work, collected in patent US20230000786A1, “TREATMENT OF SKIN DISORDERS WITH TOPICAL COMPOSITIONS COMPRISING TAPINAROF AND A PDE4 INHIBITOR” (Sol-Gel Technologies Ltd., priority 2019, published 2023).
# Read-outs that look alike come from different tables or passages of the source.
# Tests used:
# [1] = test system: proinflammatory mediators, including interleukin-6 and interleukin-17A; settings: mouse models
# [2] = psoriasis treatment, single drug; placebo 20.2%
# [3] = test system: proinflammatory mediators, including interleukin-6 and interleukin-17A; settings: in vitro human skin studies
# [4] = across all groups treated
# [5] = 1% tapinarof arm compared with 0.5% arm or vehicle
# [6] = interleukin-6 and interleukin-17A
SMILES,skin barrier function [1],"inhibition of specific proinflammatory mediators [1, 6]",adverse effects [2] [%],skin barrier function [3],"inhibition of specific proinflammatory mediators [3, 6]",folliculitis side-effect [4] [%],contact dermatitis side-effect ([4]; listed among most common side-effects (>5%)) [%],efficacy [5],onset of action [5]
"CC(C)c1c(O)cc(/C=C/c2ccccc2)cc1O [Tapinarof, 3,5-dihydroxy-4-isopropyl-trans-stilbene]",enhance skin barrier function,inhibit specific proinflammatory mediators,44.5,enhance skin barrier function,inhibit specific proinflammatory mediators,9,> 5,higher efficacy,quicker onset of action
C=C1/C(=C\C=C2/CCC[C@]3(C)[C@@H]([C@H](C)/C=C/[C@@H](O)C4CC4)CC[C@@H]23)C[C@@H](O)C[C@@H]1O [calcipotriene],–,–,19.5,–,–,–,–,–,–
